The source made the active and inactive calls. Cut-off read from the data, not from the text of the source: active = inhibition of 80% or more and inactive = less.

This is an account of results in ChEMBL document CHEMBL4513101, “Naegleria gruberi Pathogen Box compounds screening” (2021).

The test system of this experiment is Naegleria gruberi. The experiment can be described thus: microbe, parasite or virus in culture. In kind it is functional. The note with it: NEG-M, CONC 10 uM.
Description: Growth inhibiting activity of Naegleria gruberi in vitro
For orientation: inhibition means how much of the control response was suppressed. `CCCn1nnc(NC(=O)COc2ccc(C3CCCCC3)cc2)n1`: the inhibition at 10 µM is listed as 33% (not active).
The same measure for `O=C(Nc1ccc(F)c(-c2nc3cc(-c4ccccc4)cnc3[nH]2)c1)N1CCCC1`: 49.5% (not active); for `COc1ccccc1CNC(=O)c1cc(C2CC2)nc2c1cnn2C(C)C`: 49.8% (not active).
The same measure for `CCN(CC)C(=O)N1CCN(C)CC1` [DIETHYLCARBAMAZINE]: 19% (not active); for `CC1COC2(CCN(c3nc(=O)c4cc(C(F)(F)F)cc([N+](=O)[O-])c4s3)CC2)O1` (centres undefined): 38.4% (not active).
The same measure for `C[C@]1(COc2ccc(N3CCC(Oc4ccc(OC(F)(F)F)cc4)CC3)cc2)Cn2cc([N+](=O)[O-])nc2O1`: 94.1% (active); for `Cc1cccc(-c2nc(Nc3ccncn3)c3sccc3n2)n1`: 34% (not active); for `CN1CCC(NCc2cccc(-c3ccc(S(=O)(=O)NCc4ccccc4)cc3)c2)CC1`: 14.4% (not active).
As to `Brc1c(-c2ccc3c(c2)OCO3)nc2ncccn12`, the inhibition at 10 µM is 39.1% (not active).
For `c1csc(-c2cnc3sc(NCC4CCOCC4)nn23)c1`, the inhibition at 10 µM is 39.9% (not active).
The same measure for `O=C(NCCN1CCCC1)c1cc(NCCN2CCOCC2)nc2ccc(Cl)cc12`: 11% (not active).
Then `O=C(Nc1cccc(Cl)c1)c1cnc(N2CCN(c3ccncc3)CC2)c(Cl)c1`, with 39.6% (not active).
The same measure for `Nc1ncnc2c1ncn2[C@@H]1O[C@H](COS(=O)(=O)NC(=O)c2ccccc2O)[C@@H](O)[C@H]1O`: 14.5% (not active).
As to `COc1cc(C(F)(F)F)nc2ccc(C)c(N)c12`, the inhibition at 10 µM is 2.1% (not active).
As to `CC(c1cc(Cl)cc(Cl)c1)N(C)c1ncc2c(N)nc(N)nc2n1` (centres undefined), the inhibition at 10 µM is 11% (not active).
The same measure for `CNC1C(OC2C(OC3C(O)C(O)C(N=C(N)N)C(O)C3N=C(N)N)OC(C)C2(O)C=O)OC(CO)C(O)C1O` (centres undefined): 0% (not active); for `Cc1nnc(NCc2cccc(Cl)c2)c2ccccc12`: 38.4% (not active).
Then `NCCCC(N)(C(=O)O)C(F)F` (centres undefined) [EFLORNITHINE], with 33.6% (not active); and `CN1CCC(c2cc(-c3ccncc3)c(-c3ccc(F)cc3)[nH]2)CC1`, with 0% (not active).
The same measure for `CC[C@@H]([C@H](C)O)n1ncn(-c2ccc(N3CCN(c4ccc(OC[C@@H]5CO[C@@](Cn6cncn6)(c6ccc(F)cc6F)C5)cc4)CC3)cc2)c1=O` [POSACONAZOLE]: 84.8% (active).
Consider `CCc1ccccc1-n1c(C)cn2c3c(=O)n(C(C(=O)OC)C(C)C)c(=O)n(C)c3nc12` (centres undefined), for which the inhibition at 10 µM is listed as 4.4% (not active).
The same measure for `CCc1nc2ccc(C(=O)NCc3ccc4c(c3)OCO4)cn2c1N(C)Cc1cccs1`: 36% (not active); for `CC(=O)N(CCN(C(=O)c1ccc(F)cc1)c1ccccc1)c1ccccc1`: 21.3% (not active); for `O=C(NC1CC1)c1ccc(N2CCC(Cc3ccccc3)CC2)nc1`: 59.1% (not active).
The same measure for `CN(C)CCNC(=O)N1CCCN(c2ncnc3cc(-c4ccccc4)sc23)CC1`: 29.4% (not active); for `N#Cc1ccc(-c2ccc(OCC(N)=O)cc2)cc1`: 33.5% (not active); for `FC(F)(F)c1cccc(-c2nc3c(NCc4ccncc4)nccc3[nH]2)c1`: 25.1% (not active).
`Nc1ncnc2c1c(Cc1cccc3ccccc13)nn2CC1CCNCC1`: the inhibition at 10 µM is 11.4% (not active).
The same measure for `CN1CCN(c2cc(-c3ccc(F)cc3)nc(-c3ccncc3)n2)CC1`: 30% (not active); for `CNC(=O)c1nn(C)c2c1C(C)(C)Cc1cnc(Nc3ccc(N4CCN(C)CC4)cc3)nc1-2` [MILCICLIB]: 18.3% (not active); for `Cn1ccnc1CNCCS(=O)(=O)c1cccc(Nc2ccc(-c3cccc(F)c3)cn2)c1`: 26.5% (not active).
`Nc1ncnc2[nH]nc(Cc3cccc4ccccc34)c12`: the inhibition at 10 µM is 24% (not active).
Then `c1ccc(-c2nc(NC3CCCCC3)cc(C3CC3)n2)nc1`, with 23.7% (not active).
Then `Cc1ccc2cc(C3NC(=O)c4ccccc4N3)c(Cl)nc2c1` (centres undefined), with 46.1% (not active); and `CN1CCN(S(=O)(=O)c2ccc(-c3ccc4c(Nc5ccc6nn[nH]c6c5)ccnc4c3)cc2)CC1`, with 10.8% (not active); and `O=C(NCCc1ccccc1)c1cc(-c2cccnc2)cnc1NCC1CC1`, with 37.7% (not active).
Consider `Cc1[nH]c2cc(F)cc(F)c2c(=O)c1-c1ccc(Oc2ccc(OC(F)(F)F)cc2)cc1`, for which the inhibition at 10 µM is listed as 11.3% (not active).
Then `Cc1nc(-c2ccccn2)nc(N2CCC(Cc3ccccc3)C2)c1Cl` (centres undefined), with 38.3% (not active).
The same measure for `CC(=O)Nc1ccc(-c2noc(CC3CCCN(Cc4cccc(F)c4C)C3)n2)cc1` (centres undefined): 37.2% (not active); for `C[C@]1(O)C[C@@H](c2nc(-c3ccc4ccc(-c5ccccc5)nc4c3)c3c(N)nccn32)C1` [LINSITINIB]: 59.4% (not active).
As to `Cc1ccc(-c2nc(CN(Cc3ccccn3)C(C)C)cs2)o1`, the inhibition at 10 µM is reported as 26.7% (not active).
Then `Cc1ccc(NC(=O)c2nc[nH]c2C(=O)Nc2nc3ccccc3[nH]2)c(C)c1`, with 22.8% (not active); and `NCC(=O)N1CCn2c(nc(-c3ccccc3)c2Nc2ccc3c(c2)OCO3)C1`, with 8.3% (not active); and `CC(=O)N1CCN(c2ccc(Oc3ccc(Cl)cc3O)cc2)CC1`, with 0% (not active).
The same measure for `O=C(c1cc2ccccc2o1)N1CCN(Cc2ccc3c(c2)OCO3)CC1`: 28.6% (not active); for `COc1ccc(C2=NN(C3CCCCCC3)C(=O)C2(C)C)cc1OCCCCOc1ccc(-c2nn[nH]n2)cc1`: 36.8% (not active).
Then `CCC(C)NC(=O)c1ccc(NC(=O)C2(c3ccccc3)CCCC2)cc1` (centres undefined), with 0.4% (not active); and `CO/N=C(\C(=O)OC)c1ccccc1CO/N=C(\C)c1cccc(C(F)(F)F)c1`, with 43.9% (not active); and `COc1ccc(-c2cc(NC(=O)c3ccc(F)cc3Cl)ccc2OC)cc1`, with 38.4% (not active).
Consider `O=C(C1CCN(c2nnc(-n3cccc3)s2)CC1)N1CCC(Cc2ccccc2)CC1`, for which the inhibition at 10 µM was 31.1% (not active).
Then `Cc1cc(C)n(-c2ccc(NC(=O)C3CCN(Cc4cnc(C)s4)CC3)cc2)n1`, with 6.1% (not active); and `CCc1nc2ccc(Cl)cn2c1C(=O)NCc1ccc(N2CCC(c3ccc(OC(F)(F)F)cc3)CC2)cc1` [TELACEBEC], with 42.4% (not active).
Then `COc1ccc(N(CCc2cccc(C)n2)C(=O)C2CCCCC2)cc1`, with 20% (not active).
As to `O=C(c1[nH]nc2c1CCCC2)N1CCN(Cc2ccc3c(c2)OCO3)CC1`, the inhibition at 10 µM is reported as 29.5% (not active).
The same measure for `Cc1cccc(Cn2ccc(NC(=O)c3ccc4c(c3)OCO4)n2)c1`: 59.7% (not active); for `Cc1cc(C(=O)Nc2cnn(Cc3ccc(Cl)cc3Cl)c2)no1`: 65% (not active).
The same measure for `O=C(c1ccco1)N(CCCn1ccnc1)c1nc2c(Cl)cccc2s1`: 68.6% (not active).
The same measure for `Clc1ccc(Cl)c(CO[C@H]2CCCC[C@@H]2n2ccnc2)c1`: 35.1% (not active).
As to `O=C(NCc1ccoc1)N1CCN(Cc2ccc3c(c2)OCO3)CC1`, the inhibition at 10 µM was 28.7% (not active).
Then `CC1=Nc2ccc(Cl)cc2C(c2ccccc2)N1CCNC(=O)CN(C)C` (centres undefined), with 4.7% (not active).
The same measure for `COc1ccc(-c2nnc3ccc(-c4cccc(C(C)C)c4)cn23)cc1OC`: 26.7% (not active); for `CCOC(=O)NC(=O)c1ccsc1NC(=O)c1nc2ccccc2s1`: 89.3% (active).
Then `CCc1cc(=O)n(C)c(SC(C)C(=O)Nc2ccc(F)cc2)n1` (centres undefined), with 10.4% (not active).
For the compound `O=S(=O)(c1ccc(Cl)cc1)N1CCN(C(=S)NCc2ccco2)CC1`, the inhibition at 10 µM is listed as 38% (not active).
Then `CC(Oc1ccccc1)C(=O)Nc1nc(-c2ccccn2)cs1` (centres undefined), with 32.3% (not active); and `O=C(COc1cccc(F)c1)Nc1nc(-c2ccccn2)cs1`, with 24.2% (not active); and `COc1ccc2nc(C)cc(OCC(=O)Nc3ccccc3OC)c2c1`, with 34.9% (not active).
The same measure for `CC(C)NCC(=O)Nc1cccc(C(=O)Nc2cccc(C(F)(F)F)c2)c1`: 4.8% (not active); for `CCN(CC)CCCCCCNc1cc(OC)cc2c(C)ccnc12` [SITAMAQUINE]: 40.1% (not active).
As to `COc1cccc(OC)c1C(=O)Nc1ccc(Cl)c(-c2nc3ccccc3s2)c1`, the inhibition at 10 µM is 19.2% (not active).
The same measure for `CC(C)(C)n1nc(Cc2ccc(F)c(Cl)c2)c2c(N)ncnc21`: 32% (not active).
Then `O=C(NCCc1ccn(-c2ccccc2)n1)C1CCCCC1`, with 6.2% (not active); and `NS(=O)(=O)c1cccc(-c2ccc3ncc(N4CCOCC4)nc3c2)c1`, with 26% (not active).
The same measure for `O=C(Nc1nc(-c2ccccn2)cs1)c1cncn1-c1ccccc1`: 45.9% (not active); for `CC1CC1C(=O)NC1CCN(CC2(c3ccccc3)CCCCC2)CC1` (centres undefined): 43.8% (not active).
As to `CNC(=O)C1Cc2ccccc2N1C(=O)Cc1ccc(F)cc1` (centres undefined), the inhibition at 10 µM was 38% (not active).
Then `c1cncc(NCc2ccc(-c3cc4ccncc4cc3OC3CCNCC3)s2)c1`, with 19.4% (not active); and `COc1cncc(-c2cncc(N3CCN(c4ccncc4)CC3)n2)c1`, with 26.8% (not active); and `Brc1cncc(-c2cc(NCCCn3ccnc3)nc(-c3ccccc3)n2)c1`, with 33.8% (not active).
